Test [1] in a line: Antiproliferative activity against human RPMI8226 cells after 72 hrs by WST8 assay. Format: functional, cell-based. The note with it: RPMI-8226, 72 h. On the technique in general: Tetrazolium assays rely on reduction of a dye to a coloured formazan, in cell work by metabolically active cells.
The target in test [2] is T1, Protein deacetylase HDAC6 (Homo sapiens, UniProt Q9UBN7).
T1 sequence (Q9UBN7 whole entry): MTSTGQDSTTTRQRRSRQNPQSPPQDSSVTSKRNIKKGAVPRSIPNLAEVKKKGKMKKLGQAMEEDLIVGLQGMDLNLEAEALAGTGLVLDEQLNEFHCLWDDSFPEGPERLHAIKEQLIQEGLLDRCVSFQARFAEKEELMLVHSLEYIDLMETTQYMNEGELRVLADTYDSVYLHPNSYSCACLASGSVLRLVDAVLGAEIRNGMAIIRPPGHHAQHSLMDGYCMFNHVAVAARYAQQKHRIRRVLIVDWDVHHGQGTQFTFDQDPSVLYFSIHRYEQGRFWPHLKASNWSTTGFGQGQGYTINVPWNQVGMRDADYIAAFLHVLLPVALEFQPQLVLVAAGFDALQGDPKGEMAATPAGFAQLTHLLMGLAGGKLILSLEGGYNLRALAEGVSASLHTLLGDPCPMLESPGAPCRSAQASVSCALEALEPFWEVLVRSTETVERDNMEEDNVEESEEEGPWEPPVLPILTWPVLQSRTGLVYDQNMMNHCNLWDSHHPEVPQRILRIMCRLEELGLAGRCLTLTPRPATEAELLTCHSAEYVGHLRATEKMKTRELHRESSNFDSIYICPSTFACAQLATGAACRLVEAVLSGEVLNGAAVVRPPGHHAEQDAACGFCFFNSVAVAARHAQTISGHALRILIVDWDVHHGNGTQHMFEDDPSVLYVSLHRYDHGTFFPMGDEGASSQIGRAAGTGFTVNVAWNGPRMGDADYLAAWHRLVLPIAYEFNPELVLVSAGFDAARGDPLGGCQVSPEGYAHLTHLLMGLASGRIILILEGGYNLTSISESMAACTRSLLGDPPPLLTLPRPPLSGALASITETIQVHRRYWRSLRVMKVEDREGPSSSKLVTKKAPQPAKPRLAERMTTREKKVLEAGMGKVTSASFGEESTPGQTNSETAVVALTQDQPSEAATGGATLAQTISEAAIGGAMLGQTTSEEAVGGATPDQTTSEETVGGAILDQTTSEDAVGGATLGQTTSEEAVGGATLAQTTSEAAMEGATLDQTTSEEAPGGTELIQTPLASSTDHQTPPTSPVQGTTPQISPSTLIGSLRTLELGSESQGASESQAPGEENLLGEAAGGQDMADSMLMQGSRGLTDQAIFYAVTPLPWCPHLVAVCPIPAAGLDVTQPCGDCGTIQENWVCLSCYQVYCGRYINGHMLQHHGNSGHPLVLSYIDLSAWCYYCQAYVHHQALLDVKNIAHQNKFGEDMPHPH
The test is described as follows: Inhibition of human recombinant full length HDAC6 using (Boc-Lys (-acetyl)-AMC substrate after 30 mins.

The next test concerns the target Histone deacetylase 3 (Homo sapiens, UniProt O15379). The test is described as follows: Inhibition of human recombinant full length HDAC3 using (Ac)-Lys-Tyr-Lys(-acetyl)-AMC substrate after 30 mins.
Test [3] has as its target T2, Histone deacetylase (Homo sapiens) (UniProt Q13547+O15379+Q9UBN7+Q92769+Q9UQL6+Q8WUI4+Q9BY41+Q96DB2+P56524+Q9UKV0+Q969S8). The experiment in a line: Inhibition of HDAC in human RPMI8226 cells assessed as increase in histone H3 acetylation after 24 hrs by Western blot analysis. Format: cell-based. The note with it: RPMI-8226. (In general: Immunoblotting shows a protein as a band on a membrane.)

For a further test, the target named is Histone deacetylase 1 (Homo sapiens, UniProt Q13547). The experiment in a line: Inhibition of human recombinant full length HDAC1 using (Ac)-Lys-Tyr-Lys(-acetyl)-AMC substrate after 30 mins.
Chain of Histone deacetylase 1 (Q13547 whole entry): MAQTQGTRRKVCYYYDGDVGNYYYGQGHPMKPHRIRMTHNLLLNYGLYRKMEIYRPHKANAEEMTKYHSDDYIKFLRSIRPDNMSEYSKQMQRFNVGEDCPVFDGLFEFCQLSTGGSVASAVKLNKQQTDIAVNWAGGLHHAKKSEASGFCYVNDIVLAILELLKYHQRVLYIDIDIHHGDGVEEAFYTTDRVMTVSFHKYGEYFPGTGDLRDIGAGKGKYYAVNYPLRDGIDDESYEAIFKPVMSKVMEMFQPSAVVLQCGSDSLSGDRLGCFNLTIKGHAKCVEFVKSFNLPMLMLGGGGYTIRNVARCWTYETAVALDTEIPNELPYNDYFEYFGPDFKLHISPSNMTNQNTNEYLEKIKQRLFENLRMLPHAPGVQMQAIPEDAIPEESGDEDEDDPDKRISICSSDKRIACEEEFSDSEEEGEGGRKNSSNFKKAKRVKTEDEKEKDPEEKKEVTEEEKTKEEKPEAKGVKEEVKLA
For test [4], the target named is T2, Histone deacetylase (Homo sapiens). The experiment in a line: Inhibition of HDAC in human RPMI8226 cells assessed as increase in alpha-tubulin acetylation after 24 hrs by Western blot analysis. Format: cell-based. The note with it: RPMI-8226.
A short description of test [5]: Antiproliferative activity against human HCT116 cells after 72 hrs by WST8 assay. Format: functional, cell-based. The note with it: HCT-116, 72 h.

SMILES strings stand for the structures.

Chain of Histone deacetylase 3 (O15379 whole entry): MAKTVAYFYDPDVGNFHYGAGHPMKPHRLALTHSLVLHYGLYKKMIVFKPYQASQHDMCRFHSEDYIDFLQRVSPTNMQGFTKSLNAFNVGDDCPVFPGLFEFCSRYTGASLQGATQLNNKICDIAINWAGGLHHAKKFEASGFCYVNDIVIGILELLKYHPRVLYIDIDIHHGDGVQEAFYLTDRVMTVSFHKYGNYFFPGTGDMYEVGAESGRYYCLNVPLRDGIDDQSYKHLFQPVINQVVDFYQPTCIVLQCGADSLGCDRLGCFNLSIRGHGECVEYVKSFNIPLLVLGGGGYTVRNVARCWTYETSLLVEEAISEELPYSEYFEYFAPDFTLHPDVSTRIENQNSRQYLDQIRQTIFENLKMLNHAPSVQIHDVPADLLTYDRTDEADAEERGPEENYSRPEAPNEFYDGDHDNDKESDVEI

With `O=C(CCCCCCC(=O)Nc1cc2c(Nc3ccccc3)ncnc2s1)NO`, the IC50 in test [1] is 3.79 µM; in test [2] it was 0.012 µM; at Histone deacetylase 3, 0.00347 µM; on Histone deacetylase 1, 0.0019 µM; in test [5], 1.82 µM. Also, the inhibition result in test [3] and in test [4] was “Dose-dependent effect” in each case.

With `Cc1ccc(Nc2ncnc3sc(NC(=O)CCCCCC(=O)NO)cc23)cc1C`, the IC50 turned out to be 0.0169 µM in test [2], 0.0147 µM at Histone deacetylase 3 and 0.0298 µM at Histone deacetylase 1.

`CCN(CC)c1ccc(Nc2ncnc3sc(NC(=O)CCCCCCC(=O)NO)cc23)cc1F`: the IC50 in test [1] was 1.41 µM; in test [2], 0.00344 µM; on Histone deacetylase 3 it was 0.00352 µM; on Histone deacetylase 1, 0.00457 µM; in test [5], 2.55 µM. Moreover, the inhibition entry in test [3] and in test [4] was “Dose-dependent effect” throughout.

Take `O=C(CCCCCCC(=O)Nc1cc2c(Cl)ncnc2s1)NO`: the IC50 in test [1] is 2.18 µM; in test [2] it was 0.0151 µM; at Histone deacetylase 3 it was 0.0265 µM; on Histone deacetylase 1 it was 0.0255 µM; in test [5], 2.92 µM. For the same compound, the inhibition entry in test [3] and in test [4] was “Dose-dependent effect” throughout.

For `Cc1ccc(Nc2ncnc3sc(NC(=O)CCCCCC(=O)NO)cc23)cc1`, the IC50 was 0.0197 µM in test [2], 0.00933 µM at Histone deacetylase 3 and 0.014 µM on Histone deacetylase 1.

Regarding `O=C(CCCCC(=O)Nc1cc2c(Nc3ccc(F)c(Cl)c3)ncnc2s1)NO`, the IC50 came out at 0.569 µM in test [2], 0.127 µM at Histone deacetylase 3 and 0.131 µM on Histone deacetylase 1.

In the case of `O=C(CCCCCC(=O)Nc1cc2c(Nc3ccccc3)ncnc2s1)NO`, the IC50 in test [2] is 0.027 µM; on Histone deacetylase 3 it was 0.0208 µM; at Histone deacetylase 1 it was 0.0118 µM.

Regarding `O=C(CCCCCCC(=O)Nc1cc2c(Nc3ccc(I)cc3F)ncnc2s1)NO`, the values for the 50% inhibitory concentration (IC50) (in test [2]; at Histone deacetylase 3; at Histone deacetylase 1) were 0.00655 µM, 0.0135 µM and 0.00624 µM, respectively.

For the compound `O=C(CCCCCCC(=O)Nc1cc2c(Nc3ccc(O[C@H]4CCOC4)c(Cl)c3)ncnc2s1)NO`, the half-inhibitory concentration (IC50) was determined as 4.2 µM in test [1]; 0.0019 µM in test [2]; 0.00358 µM on Histone deacetylase 3; 0.00297 µM on Histone deacetylase 1; 2.24 µM in test [5].

Consider `O=C(CCCCCC(=O)Nc1cc2c(Nc3ccc(Cl)c(C(F)(F)F)c3)ncnc2s1)NO`, for which the half-maximal inhibitory concentration (IC50) in test [2] was 0.03 µM; on Histone deacetylase 3 it was 0.0483 µM; at Histone deacetylase 1 it was 0.0408 µM.

Turning to `O=C(CCCCCC(=O)Nc1cc2c(Nc3ccc(F)c(Cl)c3)ncnc2s1)NO`, the results for the IC50 (in test [2]; at Histone deacetylase 3; on Histone deacetylase 1) were 0.024 µM, 0.0377 µM and 0.0359 µM, respectively.

As to `O=C(CCCCCCC(=O)Nc1cc2c(Nc3ccc(Cl)c(C(F)(F)F)c3)ncnc2s1)NO`, the results for the IC50 (in test [2]; at Histone deacetylase 3; on Histone deacetylase 1) were 0.0115 µM, 0.0235 µM and 0.0217 µM, respectively.

Turning to `CCN(CC)c1ccc(Nc2ncnc3sc(NC(=O)CCCCCCC(=O)NO)cc23)cc1`, the IC50 in test [1] was 5.95 µM; in test [2] it was 0.0432 µM; at Histone deacetylase 3, 0.0397 µM; at Histone deacetylase 1, 0.0329 µM; in test [5], 4.44 µM.

Consider `O=C(CCCCC(=O)Nc1cc2c(Nc3ccc(Cl)c(C(F)(F)F)c3)ncnc2s1)NO`, for which the IC50 came out at 0.607 µM on Histone deacetylase 3 and 0.218 µM at Histone deacetylase 1.

As for `O=C(CCCCCCC(=O)Nc1cc2c(Nc3ccc(N4CCCCC4)c(F)c3)ncnc2s1)NO`, the IC50 in test [1] is 3.28 µM; in test [2] it was 0.00342 µM; at Histone deacetylase 3, 0.00819 µM; at Histone deacetylase 1 it was 0.00539 µM; in test [5], 1.44 µM.

For the compound `O=C(CCCCCCC(=O)Nc1cc2c(Nc3ccc(N4CCCC4)c(F)c3)ncnc2s1)NO`, the IC50 in test [1] amounted to 4.63 µM; in test [2] it was 0.00928 µM; on Histone deacetylase 3, 0.0141 µM; at Histone deacetylase 1, 0.0145 µM; in test [5], 4.09 µM.

For `Cc1ccc(Nc2ncnc3sc(NC(=O)CCCCCCC(=O)NO)cc23)cc1`, the IC50 in test [1] turned out to be 3.84 µM; in test [2], 0.00537 µM; at Histone deacetylase 3, 0.00292 µM; on Histone deacetylase 1, 0.00201 µM; in test [5] it was 2.34 µM. Further, the inhibition entry in test [3] and in test [4] was “Dose-dependent effect” in each case.

On to `Cc1ccc(Nc2ncnc3sc(NC(=O)CCCCCCC(=O)NO)cc23)cc1C`, for which the IC50 in test [1] was found to be 2.39 µM; in test [2] it was 0.0114 µM; at Histone deacetylase 3, 0.00356 µM; at Histone deacetylase 1, 0.00114 µM; in test [5], 1.61 µM. The inhibition result in test [3] and in test [4] was “Dose-dependent effect” each time.

Turning to `O=C(CCCCCCC(=O)Nc1cc2c(Nc3ccc(F)c(Cl)c3)ncnc2s1)NO`, the IC50 in test [2] is 0.022 µM; at Histone deacetylase 3, 0.0179 µM; on Histone deacetylase 1, 0.0134 µM.

For `O=C(CCCCCCC(=O)Nc1cc2c(Nc3ccc(Cl)cc3F)ncnc2s1)NO`, the IC50 worked out at 3.5 µM in test [1]; 0.00558 µM in test [2]; 0.0145 µM on Histone deacetylase 3; 0.0125 µM on Histone deacetylase 1; 1.7 µM in test [5].

As to `O=C(CCCCCCC(=O)Nc1cc2c(Nc3ccc(Br)cc3F)ncnc2s1)NO`, the IC50 was 8.12 µM in test [1], 0.00887 µM in test [2], 0.0119 µM on Histone deacetylase 3 and 0.0135 µM on Histone deacetylase 1.

Consider `O=C(CCCCCCC(=O)Nc1cc2c(Nc3ccc(F)cc3F)ncnc2s1)NO`, for which the IC50 in test [1] is 7.49 µM; in test [2] it was 0.00788 µM; at Histone deacetylase 3, 0.0169 µM; on Histone deacetylase 1 it was 0.0101 µM.

As to `O=C(CCCCCCC(=O)Nc1cc2c(Nc3cccc(Cl)c3F)ncnc2s1)NO`, the IC50 in test [1] was determined as 8.17 µM; in test [2] it was 0.00846 µM; on Histone deacetylase 3, 0.0146 µM; at Histone deacetylase 1 it was 0.00778 µM.

As to `CN(C)c1ccc(Nc2ncnc3sc(NC(=O)CCCCCCC(=O)NO)cc23)cc1F`, the IC50 in test [1] was found to be 3.49 µM; in test [2] it was 0.00269 µM; at Histone deacetylase 3 it was 0.00322 µM; at Histone deacetylase 1, 0.00451 µM; in test [5], 4.03 µM. Also, the inhibition result in test [3] and in test [4] was “Dose-dependent effect” throughout.

`O=C(CCCCCCC(=O)Nc1cc2c(Nc3cccc(Cl)c3)ncnc2s1)NO`: the IC50 in test [1] was determined as 4.49 µM; in test [2] it was 0.00858 µM; at Histone deacetylase 3, 0.00646 µM; on Histone deacetylase 1 it was 0.00324 µM.

In the case of `O=C(CCCCCCC(=O)Nc1cc2c(Nc3ccc(N4CCCC4)cc3)ncnc2s1)NO`, the IC50 in test [1] was 5.42 µM; in test [2] it was 0.00719 µM; on Histone deacetylase 3, 0.0141 µM; on Histone deacetylase 1 it was 0.0139 µM; in test [5], 3.74 µM.

In general, IC50 refers to the concentration that gives 50% inhibition.

The values are drawn from ChEMBL document CHEMBL3351302, “Design, synthesis and biological evaluation of 4-anilinothieno[2,3-d]pyrimidine-based hydroxamic acid derivatives as novel histone deacetylase inhibitors” (Bioorg Med Chem, 2014).
